Test results published in ChEMBL document CHEMBL5653631, “A Potent and Selective ULK1 Inhibitor Suppresses Autophagy and Sensitizes Cancer Cells to Nutrient Stress” (iScience, 2018).
Values belong to the compound of their own block, whether it stands above or below them.

Legend:
[1] = molecular target: Calcium/calmodulin-dependent protein kinase type II subunit delta (Homo sapiens) (UniProt Q13557); assay: Inhibition of human recombinant CaMK2d at 500 nM in presence of ATP by radiometric assay relative to control
Sequence of Calcium/calmodulin-dependent protein kinase type II subunit delta (Homo sapiens) (Q13557 whole entry): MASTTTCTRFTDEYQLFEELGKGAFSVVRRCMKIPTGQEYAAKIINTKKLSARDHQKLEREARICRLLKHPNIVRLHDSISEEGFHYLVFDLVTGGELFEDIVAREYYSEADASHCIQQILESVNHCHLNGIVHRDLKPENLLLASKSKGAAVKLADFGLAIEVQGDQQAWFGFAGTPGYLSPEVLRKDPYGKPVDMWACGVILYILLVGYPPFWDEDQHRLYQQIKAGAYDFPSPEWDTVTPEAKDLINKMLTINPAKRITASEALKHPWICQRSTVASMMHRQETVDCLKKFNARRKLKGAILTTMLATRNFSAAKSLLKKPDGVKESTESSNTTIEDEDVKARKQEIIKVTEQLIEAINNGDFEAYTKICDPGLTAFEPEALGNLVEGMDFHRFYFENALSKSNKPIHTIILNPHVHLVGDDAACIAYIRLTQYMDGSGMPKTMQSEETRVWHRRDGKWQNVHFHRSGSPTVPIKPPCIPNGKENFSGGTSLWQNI

[2] = molecular target: Serine/threonine-protein kinase 10 (Homo sapiens) (UniProt O94804); assay: Inhibition of human recombinant LOK at 500 nM in presence of ATP by radiometric assay relative to control
Sequence of Serine/threonine-protein kinase 10 (Homo sapiens) (O94804 whole entry, looked up): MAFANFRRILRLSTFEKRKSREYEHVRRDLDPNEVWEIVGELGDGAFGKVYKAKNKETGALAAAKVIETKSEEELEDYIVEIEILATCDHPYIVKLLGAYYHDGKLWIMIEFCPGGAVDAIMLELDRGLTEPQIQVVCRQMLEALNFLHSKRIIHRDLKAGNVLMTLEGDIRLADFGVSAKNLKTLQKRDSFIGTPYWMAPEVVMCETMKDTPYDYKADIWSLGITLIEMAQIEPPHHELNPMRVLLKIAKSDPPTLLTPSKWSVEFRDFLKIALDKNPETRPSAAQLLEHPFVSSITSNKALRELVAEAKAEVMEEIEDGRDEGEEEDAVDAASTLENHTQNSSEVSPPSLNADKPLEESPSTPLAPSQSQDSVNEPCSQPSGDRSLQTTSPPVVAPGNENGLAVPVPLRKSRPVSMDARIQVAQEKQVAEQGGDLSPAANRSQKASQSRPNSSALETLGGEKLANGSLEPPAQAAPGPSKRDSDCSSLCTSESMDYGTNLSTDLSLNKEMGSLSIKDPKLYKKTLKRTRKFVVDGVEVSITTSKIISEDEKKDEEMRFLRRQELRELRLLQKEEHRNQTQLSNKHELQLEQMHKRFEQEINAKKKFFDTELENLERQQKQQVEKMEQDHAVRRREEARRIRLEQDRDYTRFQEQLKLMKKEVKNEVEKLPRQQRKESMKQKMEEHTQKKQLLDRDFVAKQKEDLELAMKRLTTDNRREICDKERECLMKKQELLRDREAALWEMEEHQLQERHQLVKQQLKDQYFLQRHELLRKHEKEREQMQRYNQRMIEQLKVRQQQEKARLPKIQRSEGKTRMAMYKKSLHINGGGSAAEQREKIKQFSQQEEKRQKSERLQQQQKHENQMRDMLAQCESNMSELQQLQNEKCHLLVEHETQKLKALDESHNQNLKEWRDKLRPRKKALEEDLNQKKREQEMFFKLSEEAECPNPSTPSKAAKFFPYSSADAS

[3] = molecular target: Cyclin-dependent kinase 5 (Homo sapiens) (UniProt Q00535); assay: Inhibition of human recombinant CDK5 at 500 nM related to control ULK1
Sequence of Cyclin-dependent kinase 5 (Homo sapiens) (Q00535 whole entry, looked up): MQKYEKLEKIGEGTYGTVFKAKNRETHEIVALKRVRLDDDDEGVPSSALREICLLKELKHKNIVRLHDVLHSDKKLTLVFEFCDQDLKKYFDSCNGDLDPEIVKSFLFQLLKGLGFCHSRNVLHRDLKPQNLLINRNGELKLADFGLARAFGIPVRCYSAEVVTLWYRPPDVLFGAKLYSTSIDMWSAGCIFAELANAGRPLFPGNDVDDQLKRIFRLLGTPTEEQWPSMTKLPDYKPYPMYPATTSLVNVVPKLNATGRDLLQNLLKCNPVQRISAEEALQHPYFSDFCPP

[4] = molecular target: Serine/threonine-protein kinase Nek7 (Homo sapiens) (UniProt Q8TDX7); assay: Inhibition of human recombinant NEK7 at 15 nM in presence of ATP by radiometric assay relative to control
Sequence of Serine/threonine-protein kinase Nek7 (Homo sapiens) (Q8TDX7 whole entry, looked up): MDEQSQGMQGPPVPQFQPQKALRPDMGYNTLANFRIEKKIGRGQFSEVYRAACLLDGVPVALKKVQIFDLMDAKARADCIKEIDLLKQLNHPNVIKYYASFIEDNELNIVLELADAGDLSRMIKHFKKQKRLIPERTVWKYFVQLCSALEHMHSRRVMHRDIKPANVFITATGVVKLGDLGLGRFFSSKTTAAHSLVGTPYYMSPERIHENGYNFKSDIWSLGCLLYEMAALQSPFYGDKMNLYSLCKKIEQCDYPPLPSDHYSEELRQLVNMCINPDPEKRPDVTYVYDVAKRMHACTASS

[5] = molecular target: T1, Myosin-IIIb (Homo sapiens) (UniProt Q8WXR4); assay: Inhibition of human recombinant MYO3B at 15 nM related to control ULK1
T1 sequence (whole entry): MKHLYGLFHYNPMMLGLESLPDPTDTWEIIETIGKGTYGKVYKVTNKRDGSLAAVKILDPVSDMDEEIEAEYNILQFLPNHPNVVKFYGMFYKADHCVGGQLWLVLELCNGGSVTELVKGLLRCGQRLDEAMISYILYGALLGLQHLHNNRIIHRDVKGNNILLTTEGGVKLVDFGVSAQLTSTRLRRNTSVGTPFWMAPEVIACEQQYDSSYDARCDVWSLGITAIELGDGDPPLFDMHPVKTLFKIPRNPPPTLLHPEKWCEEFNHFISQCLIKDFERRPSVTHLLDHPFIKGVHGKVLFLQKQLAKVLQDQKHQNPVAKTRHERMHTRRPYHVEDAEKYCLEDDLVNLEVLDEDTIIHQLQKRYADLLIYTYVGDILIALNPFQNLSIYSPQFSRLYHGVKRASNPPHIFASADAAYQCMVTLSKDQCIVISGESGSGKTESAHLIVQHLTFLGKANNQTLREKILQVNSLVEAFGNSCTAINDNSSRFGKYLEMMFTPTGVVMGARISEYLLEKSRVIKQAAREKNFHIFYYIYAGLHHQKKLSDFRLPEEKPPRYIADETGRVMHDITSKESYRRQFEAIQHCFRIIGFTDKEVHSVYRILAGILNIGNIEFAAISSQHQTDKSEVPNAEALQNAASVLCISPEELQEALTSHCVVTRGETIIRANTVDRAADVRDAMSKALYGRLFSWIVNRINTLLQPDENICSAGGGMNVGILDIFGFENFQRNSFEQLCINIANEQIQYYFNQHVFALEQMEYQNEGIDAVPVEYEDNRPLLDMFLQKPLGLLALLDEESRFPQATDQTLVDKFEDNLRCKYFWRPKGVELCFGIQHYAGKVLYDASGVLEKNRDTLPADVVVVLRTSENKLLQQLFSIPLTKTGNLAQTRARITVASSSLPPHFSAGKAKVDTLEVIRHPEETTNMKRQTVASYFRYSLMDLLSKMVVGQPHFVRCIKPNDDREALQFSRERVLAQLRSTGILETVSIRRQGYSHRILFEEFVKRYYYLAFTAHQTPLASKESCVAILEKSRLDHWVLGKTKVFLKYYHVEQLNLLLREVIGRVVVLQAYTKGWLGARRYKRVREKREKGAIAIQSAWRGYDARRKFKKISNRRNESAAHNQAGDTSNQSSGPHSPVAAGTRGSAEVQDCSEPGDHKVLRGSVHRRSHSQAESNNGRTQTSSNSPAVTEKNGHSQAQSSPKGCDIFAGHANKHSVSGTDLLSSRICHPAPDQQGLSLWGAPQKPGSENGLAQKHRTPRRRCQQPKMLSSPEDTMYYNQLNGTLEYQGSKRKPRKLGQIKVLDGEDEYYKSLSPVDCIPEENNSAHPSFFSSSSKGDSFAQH

[6] = molecular target: T2, Serine/threonine-protein kinase Nek1 (Homo sapiens) (UniProt Q96PY6); assay: Inhibition of human recombinant NEK1 at 40 nM related to control ULK1
T2 sequence (whole entry): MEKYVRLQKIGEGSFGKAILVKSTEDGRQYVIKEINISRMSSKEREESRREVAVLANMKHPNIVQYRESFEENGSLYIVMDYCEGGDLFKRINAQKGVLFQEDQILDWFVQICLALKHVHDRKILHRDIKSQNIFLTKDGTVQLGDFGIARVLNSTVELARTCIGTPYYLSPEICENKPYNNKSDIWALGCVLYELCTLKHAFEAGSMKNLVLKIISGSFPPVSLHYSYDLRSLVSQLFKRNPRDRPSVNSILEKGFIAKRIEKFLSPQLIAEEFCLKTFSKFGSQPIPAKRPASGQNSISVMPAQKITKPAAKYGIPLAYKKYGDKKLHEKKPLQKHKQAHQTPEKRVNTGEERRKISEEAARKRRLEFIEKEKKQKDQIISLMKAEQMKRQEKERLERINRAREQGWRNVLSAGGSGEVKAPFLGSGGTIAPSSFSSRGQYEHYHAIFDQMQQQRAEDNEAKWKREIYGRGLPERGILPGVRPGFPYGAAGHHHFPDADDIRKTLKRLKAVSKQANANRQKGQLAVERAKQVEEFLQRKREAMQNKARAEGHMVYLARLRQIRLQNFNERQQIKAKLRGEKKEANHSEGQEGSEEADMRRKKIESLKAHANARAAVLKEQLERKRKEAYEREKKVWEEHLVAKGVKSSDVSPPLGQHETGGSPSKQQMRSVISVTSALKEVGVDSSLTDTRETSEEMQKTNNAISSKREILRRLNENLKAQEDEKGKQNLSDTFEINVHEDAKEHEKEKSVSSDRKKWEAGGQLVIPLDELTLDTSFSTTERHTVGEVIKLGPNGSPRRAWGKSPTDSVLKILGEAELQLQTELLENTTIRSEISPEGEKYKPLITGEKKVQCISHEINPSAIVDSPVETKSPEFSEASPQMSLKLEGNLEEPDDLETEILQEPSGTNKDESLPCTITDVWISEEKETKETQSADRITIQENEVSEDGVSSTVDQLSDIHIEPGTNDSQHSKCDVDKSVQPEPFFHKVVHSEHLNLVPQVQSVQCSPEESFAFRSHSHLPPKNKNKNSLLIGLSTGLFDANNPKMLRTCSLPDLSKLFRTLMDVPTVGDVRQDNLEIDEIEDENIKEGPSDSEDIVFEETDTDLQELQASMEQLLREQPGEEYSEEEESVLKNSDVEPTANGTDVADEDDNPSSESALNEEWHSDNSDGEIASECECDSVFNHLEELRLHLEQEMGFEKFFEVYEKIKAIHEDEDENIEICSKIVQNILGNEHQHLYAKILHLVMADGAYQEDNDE

inhibition [1]: 9% | inhibition [2]: 0% | fold change (FC) [3]: 0.77
Structure (SMILES): CNC(=O)c1ccccc1Oc1nc(Nc2cc(OC)c(OC)c(OC)c2)ncc1Br

inhibition [4]: 0% | fold change (FC) [5]: 0.07
Structure (SMILES): CC(C)[C@H](NC(=O)c1cc(-c2cnn3cc(-c4ccc(OCCN5CCCCC5)cc4)cnc23)cs1)C(F)(F)F

fold change (FC) [6]: 0
Structure (SMILES): O=C(N[C@@H](C1CC1)C(F)(F)F)c1cc(-c2cnn3cc(-c4ccc(F)cc4)cnc23)cs1
